Key:
[1] = biological target: T1, recombinant human ACC2 (rhACC2) (Homo sapiens, UniProt O00763, V2141I); experiment: recombinant hACC2 Transcreener assay (direct inhibition of ACC2 activity); type: biochemical; conditions: Transcreener ADP detection FP assay, 50 μM ATP, 30 μM acetyl-CoA, 50 min at 25° C.
T1 construct: a full length Cytomax clone of ACC2 was purchased from Cambridge Bioscience Limited; made in house; host or cells: CHO cells (tetracycline-induced, pcDNA5 FRT TO-TOPO)
Description: For example direct inhibition of ACC activity, for the compound of Formula (1) was determined using preparations of recombinant human ACC1 (rhACC1) and recombinant human ACC2 (rhACC2). Representative sequences of the recombinant human ACC1 and ACC2 that can be used in the assay are provided in FIG. 1 (SEQ ID NO. 1) and FIG. 2 (SEQ. ID NO. 2), respectively.
[3] Preparation of rhACC2. Human ACC2 inhibition was measured using purified recombinant human ACC2 (hrACC2). Briefly, a full length Cytomax clone of ACC2 was purchased from Cambridge Bioscience Limited and was sequenced and subcloned into PcDNA5 FRT TO-TOPO (Invitrogen, Carlsbad, Calif.). The ACC2 was expressed in CHO cells by tetracycline induction and harvested in 5 liters of DMEM/F12 with glutamine, biotin, hygromycin and blasticidin with 1 μg/mL tetracycline (Invitrogen, Carlsbad, Calif.). The conditioned medium containing ACC2 was then applied to a Softlink Soft Release Avidin column (Promega, Madison, Wis.) and eluted with 5 mM biotin. 4 mgs of ACC2 were eluted at a concentration of 0.05 mg/mL (determined by A280) with an estimated purity of 95% ([…]). The purified ACC2 was dialyzed in 50 mM Tris, 200 mM NaCl, 4 mM DTT, 2 mM EDTA, and 5% glycerol. The pooled protein was frozen and stored at −80° C., with no loss of activity upon thawing. For measurement of ACC2 activity and assessment of ACC2 inhibition, test compounds were dissolved in DMSO and added to the rhACC2 enzyme as a 5× stock with a final DMSO concentration of 1%.
[4] Measurement of human ACC2 inhibition. hACC2 was assayed in a Costar #3676 (Costar, Cambridge, Mass.) 384-well plate using the Transcreener ADP detection FP assay kit (Bellbrook Labs, Madison, Wisconsin) using the manufacturer's recommended conditions for a 50 uM ATP reaction. The final conditions for the assay were 50 mM HEPES, pH 7.2, 5 mM MgCl2, 5 mM tripotassium citrate, 2 mM DTT, 0.1 mg/mL BSA, 30 μM acetyl-CoA, 50 μM ATP, and 8 mM KHCO3 Typically, a 10 μl reaction was run for 50 min at 25° C., and 10 μl of Transcreener stop and detect buffer was added and the combination incubated at room temp for an additional 1 hour. The data was acquired on an Envision Fluorescence reader (Perkinelmer) using a 620 excitation Cy5 FP general dual mirror, 620 excitation Cy5 FP filter, 688 emission (S) and a 688 (P) emission filter.

[2] = biological target: T2, recombinant human ACC1 (rhACC1) (Homo sapiens, UniProt Q13085, DEL44-44); experiment: recombinant hACC1 Transcreener assay (direct inhibition of ACC1 activity); type: biochemical; conditions: Transcreener ADP detection FP assay, 50 μM ATP, 30 μM acetyl-CoA, 120 min at 25° C.
T2 construct: recombinant baculovirus containing full length human ACC1 cDNA; made in house; host or cells: SF9 insect cells (baculovirus)
Description: For example direct inhibition of ACC activity, for the compound of Formula (1) was determined using preparations of recombinant human ACC1 (rhACC1) and recombinant human ACC2 (rhACC2). Representative sequences of the recombinant human ACC1 and ACC2 that can be used in the assay are provided in FIG. 1 (SEQ ID NO. 1) and FIG. 2 (SEQ. ID NO. 2), respectively. Preparation of rhACC1. Two liters of SF9 cells, infected with recombinant baculovirus containing full length human ACC1 cDNA, were suspended in ice-cold lysis buffer (25 mM Tris, pH 7.5; 150 mM NaCl; 10% glycerol; 5 mM imidazole (EMD Bioscience; Gibbstown, N.J.); 2 mM TCEP (BioVectra; Charlottetown, Canada); Benzonase nuclease (10000 U/100 g cell paste; Novagen; Madison, Wis.); EDTA-free protease inhibitor cocktail (1 tab/50 mL; Roche Diagnostics; Mannheim, Germany). Cells were lysed by 3 cycles of freeze-thaw and centrifuged at 40,000×g for 40 minutes (4° C.). Supernatant was directly loaded onto a HisTrap FF crude column (GE Healthcare; Piscataway, N.J.) and eluted with an imidazole gradient up to 0.5 M over 20 column volumes (CV). ACC1-containing fractions were pooled and diluted 1:5 with 25 mM Tris, pH 7.5, 2 mM TCEP, 10% glycerol and direct loaded onto a CaptoQ (GE Healthcare) column and eluted with an NaCl gradient up to 1 M over 20 CV's. Phosphate groups were removed from purified ACC1 by incubation with lambda phosphatase (100 U/10 μM target protein; New England Biolabs; Beverly, Mass.) for 14 hours at 4° C.; okadaic acid was added (1 μM final concentration; Roche Diagnostics) to inhibit the phosphatase. Purified ACC1 was exchanged into 25 mM Tris, pH 7.5, 2 mM TCEP, 10% glycerol, 0.5 M NaCl by 6 hour dialysis at 4° C. Aliquots were prepared and frozen at −80° C. […] The final conditions for the assay were 50 mM HEPES, pH 7.2, 10 mM MgCl2, 7.5 mM tripotassium citrate, 2 mM DTT, 0.1 mg/mL BSA, 30 μM acetyl-CoA, 50 μM ATP, and 10 mM KHCO3 Typically, a 10 μl reaction was run for 120 min at 25° C., and 10 μl of Transcreener stop and detect buffer was added and the combination incubated at room temp for an additional 1 hour. The data was acquired on a Envision Fluorescence reader (Perkinelmer) using a 620 excitation Cy5 FP general dual mirror, 620 excitation Cy5 FP filter, 688 emission (S) and a 688 (P) emission filter.

T1 sequence (O00763 whole entry V2141I): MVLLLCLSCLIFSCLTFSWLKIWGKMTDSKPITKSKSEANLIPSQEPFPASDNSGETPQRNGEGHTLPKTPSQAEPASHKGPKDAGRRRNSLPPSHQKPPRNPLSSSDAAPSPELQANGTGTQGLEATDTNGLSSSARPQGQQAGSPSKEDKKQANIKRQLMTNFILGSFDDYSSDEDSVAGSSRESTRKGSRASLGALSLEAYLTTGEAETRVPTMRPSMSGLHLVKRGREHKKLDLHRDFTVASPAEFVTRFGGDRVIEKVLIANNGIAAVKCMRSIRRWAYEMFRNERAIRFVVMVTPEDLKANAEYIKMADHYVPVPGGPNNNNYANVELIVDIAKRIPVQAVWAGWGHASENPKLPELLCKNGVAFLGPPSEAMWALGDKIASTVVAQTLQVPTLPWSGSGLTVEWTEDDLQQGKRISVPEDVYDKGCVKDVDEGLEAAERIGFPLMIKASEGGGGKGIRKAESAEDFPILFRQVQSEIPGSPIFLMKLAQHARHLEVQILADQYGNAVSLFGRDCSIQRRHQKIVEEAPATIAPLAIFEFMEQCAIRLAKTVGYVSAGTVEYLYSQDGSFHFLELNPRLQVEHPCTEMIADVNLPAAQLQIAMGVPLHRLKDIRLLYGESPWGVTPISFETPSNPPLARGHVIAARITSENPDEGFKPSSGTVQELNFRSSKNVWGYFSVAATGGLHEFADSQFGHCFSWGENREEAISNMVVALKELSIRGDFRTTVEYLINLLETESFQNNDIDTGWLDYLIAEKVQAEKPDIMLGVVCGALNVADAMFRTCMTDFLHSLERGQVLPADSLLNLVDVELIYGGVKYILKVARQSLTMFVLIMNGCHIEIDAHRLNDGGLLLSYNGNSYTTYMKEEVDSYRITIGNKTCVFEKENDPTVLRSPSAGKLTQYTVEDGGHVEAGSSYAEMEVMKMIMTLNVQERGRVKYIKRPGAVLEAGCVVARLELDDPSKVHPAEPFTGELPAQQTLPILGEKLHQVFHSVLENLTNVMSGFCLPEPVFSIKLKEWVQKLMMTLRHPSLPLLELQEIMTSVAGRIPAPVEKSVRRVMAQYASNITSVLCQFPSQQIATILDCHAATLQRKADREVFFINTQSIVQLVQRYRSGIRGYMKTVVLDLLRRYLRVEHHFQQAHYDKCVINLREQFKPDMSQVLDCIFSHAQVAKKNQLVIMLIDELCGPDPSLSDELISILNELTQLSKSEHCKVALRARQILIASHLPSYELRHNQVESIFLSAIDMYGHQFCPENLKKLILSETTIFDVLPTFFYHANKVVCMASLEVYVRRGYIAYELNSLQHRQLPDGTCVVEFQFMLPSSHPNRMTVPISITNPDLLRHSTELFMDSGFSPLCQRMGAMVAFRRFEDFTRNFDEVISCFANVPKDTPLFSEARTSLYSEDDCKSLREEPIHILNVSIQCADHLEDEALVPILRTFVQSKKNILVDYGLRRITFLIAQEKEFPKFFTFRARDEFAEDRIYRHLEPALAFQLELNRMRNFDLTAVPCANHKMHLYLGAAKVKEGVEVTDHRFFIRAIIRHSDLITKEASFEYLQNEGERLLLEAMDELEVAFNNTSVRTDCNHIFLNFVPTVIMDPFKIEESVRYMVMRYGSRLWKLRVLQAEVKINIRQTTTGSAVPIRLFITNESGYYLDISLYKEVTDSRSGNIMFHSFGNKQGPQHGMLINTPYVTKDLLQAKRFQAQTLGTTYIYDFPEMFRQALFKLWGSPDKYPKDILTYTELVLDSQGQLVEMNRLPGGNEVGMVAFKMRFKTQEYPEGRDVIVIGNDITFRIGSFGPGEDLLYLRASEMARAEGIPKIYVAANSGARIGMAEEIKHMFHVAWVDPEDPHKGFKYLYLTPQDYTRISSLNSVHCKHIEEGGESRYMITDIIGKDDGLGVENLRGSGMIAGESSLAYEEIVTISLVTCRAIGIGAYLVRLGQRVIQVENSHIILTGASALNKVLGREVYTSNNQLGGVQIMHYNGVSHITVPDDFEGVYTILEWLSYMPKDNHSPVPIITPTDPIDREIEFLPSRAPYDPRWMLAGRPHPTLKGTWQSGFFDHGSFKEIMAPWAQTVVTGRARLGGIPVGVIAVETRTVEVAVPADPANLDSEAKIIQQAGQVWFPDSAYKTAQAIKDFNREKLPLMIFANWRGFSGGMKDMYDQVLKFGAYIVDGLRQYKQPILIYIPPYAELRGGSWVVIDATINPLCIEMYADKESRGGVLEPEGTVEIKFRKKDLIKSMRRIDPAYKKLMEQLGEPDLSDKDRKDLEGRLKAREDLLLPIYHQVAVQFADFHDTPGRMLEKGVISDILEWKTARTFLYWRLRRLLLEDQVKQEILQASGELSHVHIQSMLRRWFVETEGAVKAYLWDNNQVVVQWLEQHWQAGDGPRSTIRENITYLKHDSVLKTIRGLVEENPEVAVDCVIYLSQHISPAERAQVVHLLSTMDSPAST

CC(C)n1ncc2c1C(=O)CC1(CCN(C(=O)c3cc(Cl)c4[nH]c(=O)[nH]c4c3)CC1)C2 [Example 2A-57]
IC50 [1]: 20.8 nM | IC50 [2]: 66.5 nM

CC(C)(C)n1ncc2c1C(=O)CC1(CCN(C(=O)c3cnc4[nH]cnc4c3)CC1)C2 [Example 11A-39]
IC50 [1]: 81.3 nM | IC50 [2]: 69 nM

CC(C)n1ncc2c1C(=O)CC1(CCN(C(=O)c3cnc4ccccc4n3)CC1)C2 [Example 2A-61]
IC50 [1]: 2190 nM | IC50 [2]: 2320 nM

Cc1nc2ccc(C(=O)N3CCC4(CC3)CC(=O)c3c(cnn3C(C)C)C4)cc2[nH]1 [Example 3A-1, 1-isopropyl-1′-(2-methyl-1H-benzo[d]imidazole-5-carbonyl)-4,6-dihydrospiro[indazole-5,4′-piperidin]-7(1H)-one]
IC50 [1]: 48.6 nM | IC50 [2]: 96.1 nM

CC(C)n1ncc2c1C(=O)CC1(CCN(C(=O)c3cc(F)c4nc[nH]c4c3)CC1)C2 [Example 2A-36]
IC50 [1]: 29.6 nM | IC50 [2]: 123 nM

CC(C)n1ncc2c1C(=O)CC1(CCN(C(=O)c3ccc4[nH]cnc4n3)CC1)C2 [Example 11A-65]
IC50 [1]: 388 nM | IC50 [2]: 1080 nM

CC(C)n1ncc2c1C(=O)CC1(CCN(C(=O)c3ccc4cnn(C)c4c3)CC1)C2 [Example 2A-10]
IC50 [1]: 29.2 nM | IC50 [2]: 188 nM

Cc1cc(C(=O)N2CCC3(CC2)CC(=O)c2c(cnn2C(C)C)C3)ccc1Cl [Example 1A-1, 1-isopropyl-1′-(4-chloro-3-methylbenzoyl)-4,6-dihydrospiro[indazole-5,4′-piperidin]-7(1H)-one]
IC50 [1]: 68 nM | IC50 [2]: 267 nM

CC(C)n1ncc2c1C(=O)CC1(CCN(C(=O)c3cc4cccn4cn3)CC1)C2 [Example 11A-47]
IC50 [1]: 373 nM | IC50 [2]: 850 nM

CC(C)(C)n1ncc2c1C(=O)CC1(CCN(C(=O)c3ccc4[nH]c(=O)[nH]c4c3)CC1)C2 [Example 2A-29]
IC50 [1]: 9.81 nM | IC50 [2]: 24.1 nM

CC(C)(C)n1ncc2c1C(=O)CC1(CCN(C(=O)c3ccn4cncc4c3)CC1)C2 [Example 11A-32]
IC50 [1]: 96.4 nM | IC50 [2]: 155 nM

CC(C)(C)n1ncc2c1C(=O)CC1(CCN(C(=O)c3ccc(-n4cncn4)cc3)CC1)C2 [Example 11A-72]
IC50 [1]: 153 nM | IC50 [2]: 867 nM

Cc1cc(C(=O)N2CCC3(CC2)CC(=O)c2c(cnn2C(C)(C)C)C3)ccc1Cl [Example 1A-2]
IC50 [1]: 62.3 nM | IC50 [2]: 444 nM

CC(C)n1ncc2c1C(=O)CC1(CCN(C(=O)c3cnc(-c4ccccn4)[nH]3)CC1)C2 [Example 11A-37]
IC50 [1]: 463 nM | IC50 [2]: 1030 nM

Cn1c(=O)[nH]c2ccc(C(=O)N3CCC4(CC3)CC(=O)c3c(cnn3C(C)(C)C)C4)cc21 [Example 2A-49]
IC50 [1]: 71.6 nM | IC50 [2]: 92.1 nM

Cc1cc(C(=O)N2CCC3(CC2)CC(=O)c2c(cnn2C(C)C)C3)n(-c2cccnc2)n1 [Example 11A-4]
IC50 [1]: 5800 nM | IC50 [2]: 19600 nM

CC(C)n1ncc2c1C(=O)CC1(CCN(C(=O)c3cc4[nH]ccn4n3)CC1)C2 [Example 2A-67]
IC50 [1]: 653 nM | IC50 [2]: 799 nM

CC(C)n1ncc2c1C(=O)CC1(CCN(C(=O)c3cc4ccccn4c3)CC1)C2 [Example 11A-43]
IC50 [1]: 45.6 nM | IC50 [2]: 143 nM

CC(C)n1ncc2c1C(=O)CC1(CCN(C(=O)c3ccc(N4CCOCC4)nc3)CC1)C2 [Example 11A-24]
IC50 [1]: 836 nM | IC50 [2]: 6060 nM

CC(C)(C)n1ncc2c1C(=O)CC1(CCN(C(=O)c3cc4cccn4cn3)CC1)C2 [Example 11A-69]
IC50 [1]: 288 nM | IC50 [2]: 580 nM

Cc1cc(C(=O)N2CCC3(CC2)CC(=O)c2c(cnn2C2CCOC2)C3)ccc1Cl (stereo not drawn) [Example 1A-5]
IC50 [1]: 127 nM | IC50 [2]: 800 nM

CC(C)n1ncc2c1C(=O)CC1(CCN(C(=O)c3cc(F)c4[nH]ncc4c3)CC1)C2 [Example 2A-37]
IC50 [1]: 34.5 nM | IC50 [2]: 87.4 nM

Cc1ccn2cc(C(=O)N3CCC4(CC3)CC(=O)c3c(cnn3C(C)(C)C)C4)nc2c1 [Example 11A-27]
IC50 [1]: 309 nM | IC50 [2]: 584 nM

CC(C)n1ncc2c1C(=O)CC1(CCN(C(=O)c3c(O)cnc4ccccc34)CC1)C2 [Example 2A-70]
IC50 [1]: 3760 nM | IC50 [2]: 9790 nM
